# Data: patent US11236055B2 (Venenum Biodesign, LLC, priority 2016, dated 2022)
# Tests used:
# human TGR5 receptor = biological target: T1, human TGR5 receptor (Homo sapiens, UniProt Q8TDU6); assay: Human TGR5 cAMP production assay; type: cell-based; settings: human TGR5, luminescent cAMP assay; coded A-D; read-out: Human TGR5 Lum. cAMP Activity (EC50)
# T1 construct: host or cells: CHO-K1 (hTGR5-CHO cells)
# T1 sequence (Q8TDU6 1-330): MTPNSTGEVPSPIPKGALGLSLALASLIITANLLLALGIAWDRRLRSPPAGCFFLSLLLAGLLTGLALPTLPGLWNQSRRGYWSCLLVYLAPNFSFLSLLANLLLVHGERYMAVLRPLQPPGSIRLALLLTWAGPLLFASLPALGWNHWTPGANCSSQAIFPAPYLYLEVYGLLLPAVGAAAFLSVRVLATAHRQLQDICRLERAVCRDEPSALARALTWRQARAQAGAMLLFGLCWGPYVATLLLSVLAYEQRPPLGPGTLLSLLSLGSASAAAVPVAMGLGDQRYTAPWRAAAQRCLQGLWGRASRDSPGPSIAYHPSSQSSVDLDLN
# Description: Human TGR5 cAMP Production Assay
# We evaluated the Compounds of the present invention for their ability to induce cAMP production using CHO-K1 cells overexpressing the human TGR5 receptor. CHO-K1 cells stably expressing human TGR5 receptor (accession number NM_001077194.1 (hTGR5) (i.e., hTGR5-CHO cells) were purchased from DiscoveRx Corporation (Fremont, Calif.). hTGR5-CHO cells were grown in Ham's F-12 media supplemented with 10% Fetal Bovine Serum, 1% Penicillin-Streptomycin, 2 mM L-Alanine L-Glutamine (Glutamax), and 800 μg/mL Geneticin selection. The cAMP production assay was performed using DiscoveRx's cAMP XS+ kit (Catalog No. 90-0075XL) following the manufacturer's recommended protocol. Briefly, hTGR5-CHO cells were harvested using non-enzymatic cell dissociation buffer (Sigma-Aldrich, St. Louis, Mo.) and 1×10^6 cells were combined in Phosphate-Buffered Saline (PBS) to a final volume of 496 μL to which 4 μL of 125 mM IBMX (Sigma-Aldrich, St. Louis, Mo.) was added. 500 μL of cAMP antibody solution was added to the harvested cells and incubated at room temperature for 20 min.
# Test compounds were serially diluted (half-log dilutions) in DMSO and then further diluted 1:50 in PBS, 10 mM HEPES buffer. 2 μL of serially diluted compound was added to a 384-well low volume plate (Greiner; cat #784075) and centrifuged briefly. 2 μL of the cell/cAMP antibody mixture was then added to each compound-containing well and allowed to incubate at room temperature for one hour. Following incubation, the XS+ kits' ED/Lysis/CL Substrate Working Solution was prepared following the manufacturer's recommended protocol and 4 μL was added to each well of the plate. The plate was then incubated for one hour at room temperature. Following incubation, 4 μL of Enzyme Acceptor reagent was added to the plate and allowed to incubate overnight at room temperature. Luminescent signal was then detected using the Viewlux instrument (Perkin-Elmer, Waltham, Mass.).
# (§1) In Table 33, EC50 values for both human and mouse cells were determined according to the TGR5 cAMP assays described above.
# mouse TGR5 receptor = biological target: T2, mouse TGR5 receptor (Mus musculus, UniProt Q80SS6); assay: Mouse TGR5 cAMP production assay (HTRF, Cisbio cAMP HiRange); type: cell-based; settings: HEK293-EBNA cells overexpressing mouse TGR5, HTRF cAMP HiRange; coded A-D
# T2 construct: expressed in transfected cells; host or cells: HEK293-EBNA (293 c18, ATCC CRL10852), Hygromycin B selection
# T2 sequence (Q80SS6 1-329): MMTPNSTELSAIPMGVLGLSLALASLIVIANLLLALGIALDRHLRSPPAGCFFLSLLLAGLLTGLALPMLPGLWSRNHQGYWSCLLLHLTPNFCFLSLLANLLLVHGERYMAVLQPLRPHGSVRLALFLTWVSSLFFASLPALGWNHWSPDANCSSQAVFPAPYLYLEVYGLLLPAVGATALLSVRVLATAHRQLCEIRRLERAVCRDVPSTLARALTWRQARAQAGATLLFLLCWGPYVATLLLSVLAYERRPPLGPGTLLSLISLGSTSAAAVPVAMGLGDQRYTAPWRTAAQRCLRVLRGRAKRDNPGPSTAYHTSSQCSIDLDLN
# Source text: Mouse TGR5 cAMP Production Assay
# We evaluated compounds of the present invention for their ability to induce cAMP production in HEK-EBNA cells overexpressing the mouse TGR5 receptor. Human embryonic kidney cells (HEK293-EBNA) stably expressing mouse TGR5 receptor were established using the following procedure. Specifically, a commercially-obtained gene encoding mouse TGR5 (accession number BC116914) from Thermo Scientific (Waltham, Mass.) was cloned into an episomal expression vector. The resulting expression plasmid was then transfected into 293 c18 (ATCC® CRL10852™) cells, which express the Epstein-Barr virus nuclear antigen EBNA1 and can support the replication of episomal vectors. Selection for the plasmid was maintained with Hygromycin B. Cells were cultured and maintained in DMEM (Sigma; cat #6429) supplemented with 10% Fetal Bovine Serum, 1% penicillin/streptomycin, 2 mM L-alanine L-glutamine (GlutaMax), and 250 μg/mL Hygromycin.
# 2. HTRF cAMP Production Assay
# In this second cAMP production assay, the cAMP production was measured in 384-well low volume plates (Greiner; cat #784075) using the Cisbio™ cAMP HiRange HTRF Assay Kit (Cisbio) according to the manufacturer's protocol.
# Briefly, compounds were initially diluted in 100% DMSO (12-point serial dilution by half logs) in a 96-well plate and then were further diluted 1:50 in PBS containing 10 mM HEPES. 5 μL were transferred to the 384-well assay plate in duplicate. HEK293-EBNA cells stably overexpressing mouse TGR5 were harvested using non-enzymatic cell dissociation buffer (Sigma), spun down, then resuspended in serum-free DMEM with 500 μM IBMX at a density of 500,000 cells/mL. 5 μL of cell suspension was transferred to each well of the 384-well assay plate already containing compound. The plate was covered and incubated at room temperature for 1 hour. The d2-cAMP and anti-cAMP Ab-cryptate stock solutions were prepared as per kit instructions. Then 5 μL of each conjugate (d2 and cryptate) were added to each well of the assay plate. The plate was covered and incubated at room temperature for 1 hour. The plate was read on an Envision™ plate reader (Perkin Elmer).
# as §1
Structure (SMILES),EC50 (human TGR5 receptor) [nM],EC50 (mouse TGR5 receptor) [nM]
Cc1cnccc1-c1cccc([C@H](C)N(CCCC(=O)NCCS(=O)(=O)O)S(=O)(=O)c2ccccc2C(F)(F)F)c1,< 100,100 to 999
COc1cnccc1-c1cccc(C(C)(C)NS(=O)(=O)c2cc(Cl)ccc2[N+](=O)[O-])c1 [Compound 2BH],< 100,< 100
COc1cnccc1-c1cccc(C(C)(C)NS(=O)(=O)c2ccc(Cl)cc2C(F)(F)F)c1 [Compound 2BF],< 100,100 to 999
CCc1cnccc1-c1cc(OC)cc(C(C)(C)NS(=O)(=O)c2ccccc2C(F)(F)F)c1 [Compound 2CD],100 to 999,100 to 999
"Cc1cnccc1-c1cccc([C@H](C)NS(=O)(=O)c2ccccc2N)c1 [Compound 10AA, (S)-2-amino-N-(1-(3-(3-methylpyridin-4-yl)phenyl)ethyl)benzenesulfonamide]",100 to 999,1000 to 30000
"COc1cnccc1-c1cccc(C(CO)NS(=O)(=O)c2cccc(C(F)(F)F)c2)c1 (racemic) [Compound 17, (+/−) N-(2-hydroxy-1-(3-(3-methoxypyridin-4-yl)phenyl)ethyl)-3-(trifluoromethyl)benzenesulfonamide]",100 to 999,1000 to 30000
COc1cnccc1-c1cccc(C(NS(=O)(=O)c2ccccc2C(F)(F)F)c2ccccc2)c1 (stereo not drawn) [Compound 1CC],100 to 999,100 to 999
"Cc1c(Cl)cccc1S(=O)(=O)N(CCCC(=O)O)[C@@H](C)c1cccc(-c2ccncc2)c1 [Compound 14AD, (S)-4-(3-chloro-2-methyl-N-(1-(3-(pyridin-4-yl)phenyl)ethyl)phenylsulfonamido)butanoic acid]",100 to 999,100 to 999
COc1cnccc1-c1cccc(C(C)(C)NS(=O)(=O)c2ccc(C#N)cc2Cl)c1 [Compound 2BN],100 to 999,1000 to 30000
"Cc1cnccc1-c1cccc([C@@H](C)N(CCCC(=O)O)S(=O)(=O)c2cccc(Cl)c2C)c1 [Compound 16AA, (R)-4-(3-chloro-2-methyl-N-(1-(3-(3-methylpyridin-4-yl)-phenyl)ethyl)phenylsulfonamido)butanoic acid]",100 to 999,1000 to 30000
"Cc1cncnc1-c1cccc(C(C)(C)NS(=O)(=O)c2ccccc2C(F)(F)F)c1 [Compound 6AA, N-(2-(3-(5-methylpyrimidin-4-yl)phenyl)propan-2-yl)-2-(trifluoromethyl)benzenesulfonamide]",1000 to 30000,1000 to 30000

# Second part, the molecule after the results:
EC50 (human TGR5 receptor) [nM],EC50 (mouse TGR5 receptor) [nM],Structure (SMILES)
< 100,< 100,"CCc1cnccc1-c1cccc([C@H](C)N(CCCC(=O)NCS(=O)(=O)O)S(=O)(=O)c2ccccc2C(F)(F)F)c1 [Compound 20BE, (S)-(4-(N-(1-(3-(3-ethylpyridin-4-yl)phenyl)ethyl)-2-(trifluoromethyl)phenylsulfonamido)butanamido)methanesulfonic acid]"
< 100,< 100,"Cc1cnccc1-c1cccc([C@H](C)N(CCCC(=O)NCCCS(=O)(=O)O)S(=O)(=O)c2cccc(Cl)c2C)c1 [Compound 20AL, (S)-3-(4-(3-chloro-2-methyl-N-(1-(3-(3-methylpyridin-4-yl)phenyl)ethyl)phenylsulfonamido)butanamido)propane-1-sulfonic acid]"
1000 to 30000,100 to 999,"Cc1cnccc1-c1cccc([C@H](CC(=O)O)NS(=O)(=O)c2ccccc2C(F)(F)F)c1 [Compound 18, (S)-3-(3-(3-methylpyridin-4-yl)phenyl)-3-(2-(trifluoromethyl)phenylsulfonamido)propanoic acid]"
< 100,100 to 999,"Cc1cnccc1-c1cccc([C@H](C)N(CCCC(=O)NCCNC(=O)CS(=O)(=O)O)S(=O)(=O)c2ccccc2C(F)(F)F)c1 [Compound 31AE, (S)-2-((2-(4-(N-(1-(3-(3-methylpyridin-4-yl)phenyl)ethyl)-2-(trifluoromethyl)phenylsulfonamido)butanamido)ethyl)amino)-2-oxoethanesulfonic acid]"
< 100,1000 to 30000,"COc1cnccc1-c1cccc(C2CCCN2S(=O)(=O)c2ccccc2C(F)(F)F)c1 (stereo not drawn) [Compound 40AA, 3-methoxy-4-(3-(1-((2-(trifluoromethyl)phenyl)sulfonyl)pyrrolidin-2-yl)phenyl)pyridine]"
100 to 999,< 100,"Cc1cnccc1-c1cccc(C2CN(CCCC(=O)NCCS(=O)(=O)O)CCN2S(=O)(=O)c2cccc(Cl)c2C)c1 (stereo not drawn) [Compound 53AA, 2-(4-(4-((3-chloro-2-methylphenyl)sulfonyl)-3-(3-(3-methylpyridin-4-yl)phenyl)piperazin-1-yl)butanamido)ethanesulfonic acid]"
< 100,100 to 999,"Cc1cnccc1-c1cccc(C(C)(C)N(CCCNS(=O)(=O)CCNC(=N)N)S(=O)(=O)c2cccc(Cl)c2C)c1 [Compound 27AC, 3-chloro-N-(3-((2-guanidinoethyl)sulfonamido)propyl)-2-methyl-N-(2-(3-(3-methylpyridin-4-yl)phenyl)propan-2-yl)benzenesulfonamide]"
1000 to 30000,1000 to 30000,"Cc1cnccc1-c1cccc(C2CN(C(=O)OC(C)(C)C)CCN2S(=O)(=O)c2ccccc2C(F)(F)F)c1 (racemic) [Compound 42, (+/−) tert-butyl 3-(3-(3-methylpyridin-4-yl)phenyl)-4-((2-(trifluoromethyl)phenyl)sulfonyl)-piperazine-1-carboxylate]"
1000 to 30000,100 to 999,"Cc1cnccc1-c1cccc(C(CCCCN)NS(=O)(=O)c2ccccc2C(F)(F)F)c1 (stereo not drawn) [Compound 24AA, N-(5-amino-1-(3-(3-methylpyridin-4-yl)phenyl)pentyl)-2-(trifluoromethyl)benzenesulfonamide]"
< 100,100 to 999,"Cc1cnccc1-c1cccc(C(C)N(CCCC(=O)NCCSO)S(=O)(=O)c2ccccc2C(F)(F)F)c1 (stereo not drawn) [Compound 20BC, N-(2-(hydroxythio)ethyl)-4-(N-(1-(3-(3-methylpyridin-4-yl)phenyl)ethyl)-2-(trifluoromethyl)phenylsulfonamido)butanamide]"
